≈ marks a conversion by molar mass, not a printed value. Entries after “also recorded” stand apart in the source; their conditions may differ. Like-named read-outs stand apart in the source and are kept apart here. Non-standard residues stand in square brackets, D forms with d. Residues, ends and D or L forms follow the SMILES beside them. Orn(N5-OH,N5-Ac) = CC(=O)N(O)CCC[C@H](N)C(=O)O
Experiments:
[1] = test system: E. coli MC1061 containing pGG75; assay: MIC (LD 90) of maximally induced tetC (plasmid pGG75); type: cell-based; details: Escherichia coli, read-out: MIC (LD 90) of Maximally Induced tetC, pGG75
Method: (§1) E. coli MC1061 containing either pGG57, pCBSal or pGG75 were used to determine the MIC (LD 90) for tetracycline as well as six tetracycline analogs. […] MIC studies were performed in the presence of 0.01 mM IPTG for E. coli MC1061 containing pGG57. […] All of these MIC studies were done in duplicate.

strain KB3ind [2] = type: cell-based, E. coli; details: for response in the Tetracycline Assay (β-galactosidase induction): strain KB3ind, plate assay (plate or liquid assay)
Method: (§2) To detect tetracyclines, a plate assay is developed that is similar to one described previously (11). Cells are grown in Luria Broth (adjusted with NaOH to pH 7.5) with 25 μg/ml of kanamycin to a cell density of 0.5 absorbance units (600 nm). A 25 ml sample of the culture is harvested by centrifugation and resuspended in 1 ml of broth. The cells are mixed with 25 ml of soft agar (1%, wt/vol) and poured onto 100 ml of LB (pH 7.5)+ kanamycin, within a 22 cm^2 NUNC plate (Corning). Samples are applied by spotting from 2 to 15 μl, or by applying a disc impregnated with a compound, and the plate is incubated for 3-4 hours at 37° C. The plates are overlaid with a solution containing 13.5 mg of 6-bromo-2-naphthyl-β-D-galactopyranoside side and 86.5 mg of fast blue RR (Sigma) dissolved in 2 ml of dimethylsulfoxide, to which 25 ml of soft agar is added. β-Galactosidase is detected by the presence of a purple spot.

[3] = test system: E. coli MC1061 containing pCBSal; assay: MIC (LD 90) of maximally induced tetA (plasmid pCBSal); type: cell-based; details: Escherichia coli, read-out: MIC (LD 90) of Maximally Induced tetA, pCBSal
Method: as §1

[4] = test system: E. coli MC1061 containing pGG57; assay: microbe, parasite or virus in culture; type: cell-based; details: Escherichia coli, read-out: MIC (LD 90) of Maximally Induced tetK, pGG57
Method: as §1

[5] = test system: tetracycline efflux pump (strain KB4 or KB5); assay: Inhibition Assay, plate assay (agar with 5 ng/ml of tetracycline); for Inhibition Assay response: key: ±: Possible positive; +: Weak positive; ++: Stronger positive; -: Negative; type: cell-based, E. coli; details: for Inhibition Assay response: disc on assay plate; for response in the Inhibition Assay: 5 ng/ml of tetracycline
Method: as §2
Two assays are developed for detecting inhibitors of the tetA gene product (using strain KB5), or the tetK gene product (using strain KB4). In the Inhibition Assay, cells of strain KB4 or KB5 are treated as described in the tetracycline screen above, except that the agar medium contains 5 ng/ml of tetracycline. Alternatively a Liquid Assay is also developed. Cells are first grown in LB (pH 7.5). Then cells are shifted to medium containing 5 ng/ml of tetracycline, and tetracycline-containing samples are added to aliquots. Cells are then incubated and assayed as described for the Tetracycline Assay. […] However, the intracellular concentration is reduced in tetracycline resistant strains due to the action of the efflux pump, so more tetracycline would be required in the medium to accumulate sufficient tetracycline inside the cell to induce. The Inhibition Assay is designed to detect compounds that cause β-galactosidase induction in the presence of sub-inducing levels of tetracycline for a resistant strain.

NK5031 (λStet158-50) = assay: Plate assay with control strain containing the cI wild type allele; type: cell-based, E. coli; details: 3 μl samples, up to 22.5 ng bleomycin, 150 ng mitomycin C or cinodine
strain KB4 or KB5 [6] = assay: Synergy Assay, plate assay (agar with 5 μg/ml of tetracycline); type: cell-based, E. coli; details: for response in the Synergy Assay: 5 μg/ml of tetracycline
Method: Two types of assays for pump inhibitors are designed using this type of screening organism. The first is a Synergy Assay, which determines the ability of a compound or composition to kill the organism in combination with tetracycline. […] In brief, in a Synergy Assay, the screening cells are treated as described above for the tetracycline assay, except that the agar medium contains 5 μg/ml of tetracycline which is near the MIC for the strains to be used in the screen. […] Alternatively, cells are treated as described above for the tetracycline liquid assay, except that cells are shifted to a medium containing 5 μg/ml of tetracycline.
(§3) In the Synergy Assay, cells are treated as above for the plate assay, except that agar medium contains 5 μg/ml of tetracycline, near the MIC for strain KB4 or KB5. […] Alternatively, cells are treated as above for the liquid assay, except that cells are shifted to medium containing 5 μg/ml of tetracycline.

strain KB3ind [7] = assay: Growth in LB medium with nocardamine, strain KB3ind; type: cell-based, E. coli; details: tetracycline-sensitive strain KB3ind, 0.5 μg/ml of tetracycline
Method: FIG. 10 (Parts A, B and C) illustrates the effect of nocardamine on the growth of tetracycline sensitive and resistant cells. Cells are grown in LB medium lacking tetracycline, as described in the text, and then aliquots are added to medium containing no tetracycline, or a sub-inhibitory concentration for the particular strain. Nocardamine (μg/ml) is present or absent as indicated. For strain KB3ind, the tetracycline-sensitive strain, the sub-inhibitory concentration of tetracycline is 0.5 μg/ml. For the Tn10 derivative of strain KB3ind, 20 μg/ml of tetracycline is the sub-inhibitory level. For strain KB4, the modestly tetracycline-resistant organism, 5 μg/ml of tetracycline is the sub-inhibitory concentration.

strain KB4 or KB5 [8] = assay: Synergy Assay, liquid assay (5 μg/ml of tetracycline); type: cell-based, E. coli; details: liquid culture
Method: Inhibitory activity is assayed in liquid culture by growing strain KB4 in medium lacking tetracycline and then transferring to medium containing 5 ng/ml of tetracycline, a sub-inducing level of tetracycline due to the action of the efflux pump. Nocardamine is also added as indicated. After 4 generations of growth, the specific activity of β-galactosidase is determined in Miller Units (10). […] Alternatively, aliquots of KB4 are transferred to a medium containing 5 μg/ml of tetracycline and the nocardamine concentration indicated.
as §3

[9] = test system: Tn10 derivative of strain KB3ind; assay: Growth in LB medium with nocardamine, Tn10 strain; type: cell-based, E. coli; details: for effect on growth in combination with tetracycline: Tn10 strain, 20 μg/ml or 25 μg/ml of tetracycline; for effect on growth, tetracycline absent: no tetracycline in medium
Method: (§4) Cells are grown in LB medium lacking tetracycline, as described in the text, and then aliquots are added to medium containing no tetracycline, or a sub-inhibitory concentration for the particular strain. Nocardamine (μg/ml) is present or absent as indicated.

strain KB4 = assay: Growth in LB medium with nocardamine, strain KB4; type: cell-based, E. coli; details: strain KB4, 5 μg/ml of tetracycline
Method: as §4
Throughout, for Induction Assay response: key: ±: Possible positive; +: Weak positive; ++: Stronger positive; -: Negative.

## CN(C)[C@@H]1C(=O)C(C(N)=O)=C(O)[C@@]2(O)C(=O)C3=C(O)c4c(O)cccc4C[C@H]3C[C@@H]12 [6-demethyl 6-deoxyTc, 6-demethyl-6-deoxytetracycline]
[1]
  MIC: 20 µg/mL (≈ 48.3 µM)
Strain KB3ind [2]
  response in the Tetracycline Assay (β-galactosidase induction): capable of detecting
[3]
  MIC: 20 µg/mL (≈ 48.3 µM)
[4]
  MIC: 7 µg/mL (≈ 16.9 µM)

## Cc1c2c(c(O)c3c(O)cccc13)C(=O)C1(O)C(O)=C(C(N)=O)C(=O)C(N(C)C)C1C2 (stereo not shown) [AnhydroTc]
[1]
  MIC: 2 µg/mL (≈ 4.69 µM)
[3]
  MIC: 3 µg/mL (≈ 7.04 µM)
[4]
  MIC: 2 µg/mL (≈ 4.69 µM)

## CN(C)[C@@H]1C(O)=C(C(N)=O)C(=O)[C@@]2(O)C(O)=C3C(=O)c4c(O)ccc(Cl)c4[C@@](C)(O)[C@H]3C[C@@H]12 [ChlorTc, chlortetracycline]
[1]
  MIC: 40 µg/mL (≈ 83.5 µM)
Strain KB3ind [2]
  response in the Tetracycline Assay (β-galactosidase induction): capable of detecting
[3]
  MIC: 50 µg/mL (≈ 104 µM)
[4]
  MIC: 40 µg/mL (≈ 83.5 µM)

## C[C@H]1c2cccc(O)c2C(O)=C2C(=O)[C@]3(O)C(O)=C(C(N)=O)C(=O)[C@@H](N(C)C)[C@@H]3[C@@H](O)[C@@H]21 [DoxyTc, doxycycline]
[1]
  MIC: 20 µg/mL (≈ 45 µM)
Strain KB3ind [2]
  response in the Tetracycline Assay (β-galactosidase induction): capable of detecting
[3]
  MIC: 40 µg/mL (≈ 90 µM)
[4]
  MIC: 7 µg/mL (≈ 15.8 µM)

## CN(C)c1ccc(O)c2c1C[C@H]1C[C@H]3[C@H](N(C)C)C(O)=C(C(N)=O)C(=O)[C@@]3(O)C(O)=C1C2=O [Minocycline]
[1]
  MIC: 8 µg/mL (≈ 17.5 µM)
Strain KB3ind [2]
  response in the Tetracycline Assay (β-galactosidase induction): capable of detecting
[3]
  MIC: 14 µg/mL (≈ 30.6 µM)
[4]
  MIC: 4 µg/mL (≈ 8.74 µM)

## CO[C@@]12[C@H](COC(N)=O)C3=C(C(=O)C(C)=C(N)C3=O)N1C[C@@H]1N[C@@H]12 [Mitomycin]
[5]
  Inhibition Assay response: -
NK5031 (λStet158-50)
  β-galactosidase induction in control strain (cI wild type allele): inducing β-galactosidase
Strain KB3ind [2]
  Induction Assay response: -
  response in the Tetracycline Assay (β-galactosidase induction): No β-galactosidase is detected

## C/C(=C/C(=O)N([O-])CCCC1NC(=O)CNC(=O)C(CO)NC(=O)C(CO)NC(=O)C(CCCN([O-])C(=O)/C=C(/C)CC(=O)O)NC(=O)C(CCCN([O-])C(=O)/C=C(\C)CC(=O)O)NC1=O)CC(=O)O.[Fe+3] (stereo not shown) [ferrichromeA]
[5]; plate assay
  response in the Inhibition Assay: test positive
Strain KB4 or KB5 [6]
  response in the Synergy Assay: test positive

## CC(=O)N([O-])CCC[C@@H]1NC(=O)CNC(=O)CNC(=O)CNC(=O)[C@H](CCCN([O-])C(C)=O)NC(=O)[C@H](CCCN([O-])C(C)=O)NC1=O.[Fe+3] [ferrichrome] (cyclo(GGG[Orn(N5-OH,N5-Ac)][Orn(N5-OH,N5-Ac)][Orn(N5-OH,N5-Ac)]))
[5]; plate assay
  response in the Inhibition Assay: test positive
Strain KB4 or KB5 [6]
  response in the Synergy Assay: test positive

## CCCCc1ccc(C(=O)O)nc1 [fusaric acid]
[5]; plate assay
  response in the Inhibition Assay: do not test positive
Strain KB4 or KB5 [6]
  response in the Synergy Assay: do not test positive

## O=C1CCC(=O)N(O)CCCCCNC(=O)CCC(=O)N(O)CCCCCNC(=O)CCC(=O)N(O)CCCCCN1 [nocardamine]
Strain KB3ind [7]
  effect on growth in combination with tetracycline: affects the growth; also recorded: is affected
Strain KB4 or KB5 [8]
  effect on β-galactosidase production / growth: marked decrease in β-galactosidase; also recorded: growth inhibition
[5]; plate assay
  response in the Inhibition Assay: induction
[5]; plate assay, listed as Nocardamine
  response in the Inhibition Assay: detected
[5]; plate assay, strains KB4 and KB5
  amount sufficient to detect activity in the Inhibition Assay: One
Strain KB3ind [2]
  response in the Tetracycline Assay (β-galactosidase induction): no response
[9]
  effect on growth in combination with tetracycline: severe growth inhibition; also recorded: inhibits growth
  effect on growth, tetracycline absent: little or no effect
[9]; listed as Nocardamine
  effect on growth in combination with tetracycline: inhibits the growth
  effect on growth, tetracycline absent: little effect
Strain KB4
  effect on growth in combination with tetracycline: severe growth inhibition
Strain KB4 or KB5 [6]
  response in the Synergy Assay: differential growth inhibition
Strain KB4 or KB5 [6]; listed as Nocardamine
  response in the Synergy Assay: detected
Strain KB4 or KB5 [6]; strains KB4 and KB5
  amount sufficient to detect activity in the Synergy Assay: One

## CN(C)C1C(=O)C(C(N)=O)=C(O)C2(O)C(=O)C3=C(O)c4c(O)cccc4C(C)(O)C3C(O)C12 (stereo not shown) [oxyTc]
[1]
  MIC: 300 µg/mL (≈ 652 µM)
[3]
  MIC: > 300 µg/mL
[4]
  MIC: 250 µg/mL (≈ 543 µM)

## Bacitracin
[5]
  Inhibition Assay response: -
Strain KB3ind [2]; disc on assay plate
  Induction Assay response: -

## Colistin
[5]
  Inhibition Assay response: -
Strain KB3ind [2]; disc on assay plate
  Induction Assay response: -

## Gentamicin
[5]
  Inhibition Assay response: -
Strain KB3ind [2]; disc on assay plate
  Induction Assay response: -

## Polymyxin B
[5]
  Inhibition Assay response: -
Strain KB3ind [2]; disc on assay plate
  Induction Assay response: -

## bleomycin
NK5031 (λStet158-50)
  β-galactosidase induction in control strain (cI wild type allele): inducing β-galactosidase
Strain KB3ind [2]
  response in the Tetracycline Assay (β-galactosidase induction): No β-galactosidase is detected

## cinodine
NK5031 (λStet158-50)
  β-galactosidase induction in control strain (cI wild type allele): inducing β-galactosidase
Strain KB3ind [2]
  response in the Tetracycline Assay (β-galactosidase induction): No β-galactosidase is detected

From US5789188A, “Tetracycline-efflux pump inhibitor screening methods” (priority 1996, dated 1998)
